The source of these data is patent US10118908B2, “Method for manufacturing furan-2,5-dicarboxylic acid (FDCA) from a solid salt” (PURAC BIOCHEM BV, priority 2015, dated 2018).

Molecules are shown by their SMILES.

The nature of data set [1]: Solubility of FDCA in water as a function of magnesium chloride concentration. It counts as physicochemical. The conditions noted are these: magnesium chloride solutions in water, stirred 24 h at 21.8° C. and 48.8° C., filtrate analysed by HPLC; values only in FIG. 3. As to the method: Magnesium chloride solutions in water were prepared by dissolving magnesium chloride hexahydrate in water. To each solution (30 g) solid FDCA was added and the mixture was stirred for 24 h at 21.8° C. After stirring a sample was taken and filtered by means of a 0.45 micron filter. The clear filtrate was analysed on FDCA content by means of HPLC. The experiment was repeated at 48.8° C.

Data set [2] in a line: Saturation concentration of MgFDC solution. The conditions noted are these: solution at 20° C., as anhydrate. The class given is physicochemical. As to the method:
The HCl was added over a period of about 1 hour and the final pH was 1.5. […] The solid FDCA was filtered off and washed with water. The concentration of 4 wt. % was chosen as it is the saturation concentration at 20° C.

Regarding `O=C(O)c1ccc(C(=O)O)o1` [FDCA, furan-2,5-dicarboxylic acid], the “solubility of FDCA” value in data set [1] is “depends strongly on temperature and on the concentration of magnesium chloride”. Turning to `O=C([O-])c1ccc(C(=O)[O-])o1.[Mg+2]` [MgFDC, magnesium furan-2,5-dicarboxylate], in data set [2], the saturation concentration worked out at 4 wt. %.
